Broadly, the IC50 is the point on the concentration scale where inhibition reaches its midpoint. High values mean lower potency, low ones higher potency.

Data on 10 molecules can be found in BindingDB's records for patent US10919885 (Yumanity Therapeutics, 2021).

Each structure is given as a SMILES string. Bounds are passed on as bounds.

One experiment has as its target T1, Stearoyl-CoA desaturase (Homo sapiens, UniProt O00767).
T1 sequence (O00767 whole entry): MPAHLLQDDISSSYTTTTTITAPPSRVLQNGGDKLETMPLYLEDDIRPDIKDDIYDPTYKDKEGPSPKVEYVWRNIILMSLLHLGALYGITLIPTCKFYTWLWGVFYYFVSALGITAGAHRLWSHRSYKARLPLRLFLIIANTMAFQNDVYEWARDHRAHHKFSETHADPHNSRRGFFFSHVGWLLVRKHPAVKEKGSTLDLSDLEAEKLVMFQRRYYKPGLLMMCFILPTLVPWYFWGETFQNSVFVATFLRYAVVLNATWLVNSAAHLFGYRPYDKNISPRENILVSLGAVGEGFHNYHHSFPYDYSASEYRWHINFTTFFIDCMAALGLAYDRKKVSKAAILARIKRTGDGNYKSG
In words: Compound Profiling Methods. As for the experimental part: (§1) Strains expressing SCD1 or SCD5 as the sole desaturase, the human SCD1 and SCD5 genes were used to evaluate inhibition of SCD1/SCD5 using reduced growth as a surrogate for SCD inhibition. These yeast strains express human SCD1 or SCD5 from a plasmid harbored in a strain in which the yeast OLE1 gene is deleted.All compound profiling experiments were performed using the same basic protocol. Yeast were cultured using standard techniques in complete synthetic media lacking uracil and containing yeast nitrogen base supplemented with 2% (w/v) glucose (SD-Ura) Starter cultures were inoculated in 3 mL SD-Ura media containing 0.01% tween and 0.2 mM palmitoleic and oleic acid. Cultures were incubated overnight in a 30° C. shaker incubator (225 rpm). Saturated morning cultures were centrifuged, washed in SD-Ura media lacking TWEEN-20 and fatty acids, and then diluted 1:20 in fresh SD-Ura media also lacking TWEEN-20 and fatty acids. […] Compound administration was performed in two separate steps. First, 15 μL of SD-Ura was dispensed into clear 384-well assay plates using a MULTIDROP Combi reagent dispenser. […] The cultures described above were centrifuged and washed with media lacking TWEEN-20 or oleic and palmitoleic acids. Cultures were then resuspended at a 2-fold concentrated OD600 of 0.02 (final OD600 of 0.0.01) in SD-Ura. […] Yeast growth was monitored by reading the OD600 of each well using a microplate reader (Perkin Elmer EnVision ). Data were analyzed as follows.

In experiment [1] the target is T2, Stearoyl-CoA desaturase 5 (Homo sapiens, UniProt Q86SK9).
T2 sequence (Q86SK9 whole entry): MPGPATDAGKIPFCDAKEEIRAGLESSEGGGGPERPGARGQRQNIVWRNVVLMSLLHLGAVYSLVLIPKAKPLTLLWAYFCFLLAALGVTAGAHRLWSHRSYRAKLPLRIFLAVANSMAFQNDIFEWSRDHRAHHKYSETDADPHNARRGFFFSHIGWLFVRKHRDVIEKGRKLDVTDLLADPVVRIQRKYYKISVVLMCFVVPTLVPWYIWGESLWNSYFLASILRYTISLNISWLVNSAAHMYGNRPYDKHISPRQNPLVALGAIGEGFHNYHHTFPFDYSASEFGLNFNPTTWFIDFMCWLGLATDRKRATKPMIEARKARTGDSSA
In words: Compound Profiling Methods. As for the experimental part:
as §1

In the case of `O=C(Nc1cnn(Cc2ccccc2)c1)c1cc(-c2ccc3c(c2)OCO3)on1` [US10919885, Compound No. 6], the IC50 at Stearoyl-CoA desaturase was more than 45 µM.
For `O=C(Nc1cnn(Cc2cccc(Cl)c2)c1)c1cc(-c2ccccn2)on1` [US10919885, Compound No. 57], the IC50 (in experiment [1]; at Stearoyl-CoA desaturase) was more than 45 µM throughout.
`CC(C)(C)OC(=O)N1CCC(NC(=O)c2cc(-c3ccco3)on2)CC1` [US10919885, Compound No. 287]: the half-maximal inhibitory concentration (IC50) (in experiment [1]; at Stearoyl-CoA desaturase) was more than 45 µM throughout.
Consider `N#Cc1ccc(C2CCN(C(=O)c3cc(-c4ccc5c(c4)OCO5)on3)CC2)cc1` [US10919885, Compound No. 291], for which the figures for the IC50 (in experiment [1]; on Stearoyl-CoA desaturase) were 4.75 µM and more than 45 µM, respectively.
For `O=C(c1cc(-c2ccc3c(c2)OCO3)on1)N1CCC(c2ccc(F)c(F)c2)CC1` [US10919885, Compound No. 292] the same measures were 1.82 µM and more than 45 µM.
The corresponding values for `CC(C)(C)OC(=O)N1CCC2(CCN(C(=O)c3cc(-c4ccccc4)on3)C2)C1` (stereo not drawn) [US10919885, Compound No. 295] are 29.4 µM and more than 45 µM.
`CC(C)(C)OC(=O)N1CCC(NC(=O)c2cc(-c3ccco3)on2)C1` (stereo not drawn) [US10919885, Compound No. 332]: the IC50 (in experiment [1]; at Stearoyl-CoA desaturase) was more than 45 µM throughout.
Regarding `COc1ccc(C2CCCN2C(=O)c2cc(-c3ccccc3OC)on2)cc1` (stereo not drawn) [US10919885, Compound No. 379], the IC50 on Stearoyl-CoA desaturase is more than 45 µM.
In the case of `O=C(c1noc2ccccc12)N1CCC[C@H]1c1ccccc1` [US10919885, Compound No. 438], the IC50 (in experiment [1]; against Stearoyl-CoA desaturase) was more than 45 µM in each case.
For `O=C(c1cc(-c2ccc3c(c2)CCO3)on1)N1CCCC1c1ccncn1` (stereo not drawn) [US10919885, Compound No. 440], the IC50 (in experiment [1]; against Stearoyl-CoA desaturase) was more than 45 µM each time.
